Reference: patent publication US6271238A, “Acetamide derivatives and protease inhibitors” (Nippon Kayaku Kabushiki Kaisha, priority 1996, dated 2001)

Experiments:
guinea pig eosinophils = assay: Inhibitory action on eosinophils (release of active oxygen from guinea pig eosinophils); type: cell-based; conditions: Cavia porcellus, Eosinophil, 5 min, PAF, luminol chemiluminescence for 5 minutes
Method: Inhibitory activity on eosinophil activation
(A) Preparation of eosinophils
Polymyxin B (produced by Sigma) was administered intraperitoneally into a guinea pig (Hartley, male, 6-week-old) at a dosage of 1 mg once every week for 6 to 8 weeks. After the final administration of polymyxin B. 50 ml of PBS (phosphate-buffered saline) was injected into the intraperitoneal cavity of the guinea pig, and cells were recovered. The cells were centrifuged at 800 rpm for 5 minutes and the abdomen infiltration cells were collected as precipitates and then suspended in 1 ml of 40% Ficoll (40% Ficoll (produced by Pharmacia), HBSS (Hanks' balanced salt solution) and layered on a Ficoll discontinuous density gradient (40 to 90%). It was centrifuged at 1500 rpm for 40 minutes, and the eosinophil fraction was recovered. In this operation, eosinophils of 99% or more purity were usually obtained. Further, the cells were washed twice with RPMI 1640 medium (10% BSA (bovine serum albumin available from Boehringer Mannheim), suspended again at a predetermined density, and used in the objective experiment.
(B) Inhibitory action on eosinophils (inhibitory action on release of active oxygen from guinea pig eosinophils)
The eosinophils (99% or more purity) obtained by the Ficoll density gradient method in (A) above were suspended at a cell density of 4×10^5 in a buffer solution (0.136 M sodium chloride, 2.7 mM potassium chloride, 1.8 mM calcium chloride, 1.0 mM magnesium chloride, 11.9 mM sodium hydrogen carbonate, 5.5 mM D-glucose, 5.0 mM HEPES, 0.36 mM sodium dihydrogen phosphate, pH 7.2). Each drug (2 μl) and 180 μl of the cell suspension were put to a 96-well multi-well plate (for chemiluminescence measurement, white type) previously kept at 37° C., and incubated at 37° C. for 10 minutes. After incubation, 20 μl of PAF (platelet-activating factor) (5×10^-6 M) and 20 μl of a luminol solution were added to it and immediately examined for its chemiluminescence (Luminoskan Labosystem). The chemiluminescence for 5 minutes were measured to calculate 50% inhibitory concentration (IC50: μM).

rat mast cells = assay: Inhibitory action on degranulation of mast cells (histamine release from rat mast cells); type: cell-based; conditions: Mast cell; rat peritoneal mast cells, anti-IgE antibody, 37° C.
Method: Inhibitory action on degranulation of mast cells
(A) Preparation of mast cells
30 ml of mast cell buffer solution (150 mM sodium chloride, 3.7 mM potassium chloride, 3.0 mM disodium hydrogen phosphate, 3.5 mM sodium dihydrogen phosphate, 5.6 mM dextrose, pH 7.0) was injected into the abdomen of a rat(SD, male, 8 to 10 week-old), and intra peritoneal cavity cells were recovered and centrifuged at 800 rpm for 5 minutes, and then the abdomen infiltration cells were recovered as precipitates. The precipitated cells were further washed twice with the mast cell buffer solution, suspended again at a predetermined density, and used in the objective experiment.
(B) Inhibitory action on degranulation of mast cells (inhibitory action on histamine release from rat mast cells)
The mast cells obtained in the procedure in (A) above were suspended at 1×10^5 cells in the mast cell buffer solution and kept at 37° C. 2 μl of each drug and 200 μl of the cell suspension were added into a 1.5 ml test tube previously kept at 37° C. and incubated at 37° C. for 10 minutes. After incubation, 2 μl anti-IgE antibody (BETHYL Lab. Inc.) was added to it and further incubated at 37° C. for 15 minutes. After the end of the reaction, the reaction mixture was immediately cooled on ice and centrifuged at 4° C. at 4000 rpm for 5 minutes, and then the supernatant was stored. Histamine in the supernatant was modified with ortho-phthalaldehyde and measured by high performance liquid chromatography to determine 50% inhibitory concentration (IC50: μM).

rat chymase = biological target: T1, rat chymase (Rattus norvegicus, UniProt P09650); assay: Inhibitory activity on rat chymase (synthetic substrate); type: biochemical; conditions: substrate succinyl leucyl leucyl valyl tyrosyl methylcoumarylamide; pH 8.0, 37° C., 15 min; read-out: Rat Chymase (IC50: nM), 50% inhibitory concentration
T1 construct: 50 g rat tongue was finely divided by scissors and a scalpel; from tissue; host or cells: rat tongue
T1 sequence (P09650 21-260): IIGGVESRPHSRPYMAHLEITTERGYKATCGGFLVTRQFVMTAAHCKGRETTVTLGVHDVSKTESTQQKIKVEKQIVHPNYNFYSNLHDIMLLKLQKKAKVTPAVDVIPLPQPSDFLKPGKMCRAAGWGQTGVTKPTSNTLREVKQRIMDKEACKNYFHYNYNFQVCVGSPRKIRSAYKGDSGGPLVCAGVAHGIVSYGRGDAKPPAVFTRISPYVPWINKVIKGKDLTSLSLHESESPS
Method: In the present invention, chymase was purified by the methods described in these literatures, and the present compounds were examined for inhibitory activity on chymase, inhibitory action on activation of mast cells and eosinophils, and pharmacological action in animals. Hereinafter, specific methods are described. […] 50 g rat tongue was finely divided by scissors and a scalpel, suspended in 0.1 M phosphate buffer (pH 8.0), and disrupted by a Polytron homogenizer for 5 minutes to prepare a crude chymase enzyme solution. […] The supernatant was applied to an octyl Sepharose 4B column (40×100 mm) previously equilibrated with 0.1 M phosphate buffer (pH 8.0) containing 2 M sodium chloride and 5% ammonium sulfate, and the protein was eluted with a linear concentration gradient of from 2 M to 0 M sodium chloride. […] (D) Measurement of inhibitory activity on chymase (a) Measurement using the synthetic substrate The synthetic chymase substrate was used for measurement of the inhibitory activity on the rat chymase as a subtrate, and the fluorescence of formed aminomethylcoumarin after reaction was measured by a spectrophotometer. […] The test was conducted several times. Chymase was prepared for each test in the manner described above. The compounds examined were compounds prepared in the above-described examples. […] Succinyl leucyl leucyl valyl tyrosyl methylcoumarylamide (for rat […] angiotensin I (for human and dog chymase)

IC50 (guinea pig eosinophils)	IC50 (rat mast cells)	IC50 (rat chymase)	Structure (SMILES)
2.6 µM	13 µM		Nc1cnc(-c2ccccc2)n(CC(=O)NC(Cc2ccccc2)C(=O)C(=O)CCCN2CCOCC2)c1=O (stereo not shown) [Compound 71, 2-(5-Amino-6-oxo-2-phenyl-1,6-dihydropyrimidine-1-yl)-N-{2,3-dioxo-6-(4-morpholine-4-yl)-1-phenylmethyl}hexylacetamide]
2.5 µM		54 nM	CN1CCN(C(=O)CCCC(=O)C(=O)C(Cc2cccc(F)c2)NC(=O)Cn2c(-c3ccccc3)ncc(N)c2=O)CC1 (stereo not shown) [Compound 69]
